{"source": "patent US20110160054A1", "about": "“Pesticidal Mixtures Comprising Cyanosulfoximine Compounds and Spinetoram” (BASF SE, priority 2008, published 2011)", "type_in_all_cases": "cell-based", "settings_in_all_cases": "single compound, 7 days after inoculation", "key": {"Botrytis cinerea": {"test_system": "Botrytis cinerea", "experiment": "Activity against the grey mold Botrytis cinerea in the microtiterplate test (Botrci)"}, "Septoria tritici": {"test_system": "Septoria tritici", "experiment": "Activity against leaf blotch on wheat caused by Septoria tritici, microtiter test (Septtr)"}, "Pyricularia oryzae": {"test_system": "Pyricularia oryzae"}, "Phytophthora infestans": {"test_system": "Phytophthora infestans"}}, "note": "Like-named read-outs stand apart in the source and are kept apart here.", "data": [{"compound": "Fc1ccc([C@]2(Cn3cncn3)O[C@H]2c2ccccc2Cl)cc1", "note": "(racemic) [Epoxiconazol, epoxiconazole]", "values": [{"measurement": "Observed efficacy", "setting": "Botrytis cinerea; 0.25 ppm", "value": 25, "unit": "%"}]}, {"compound": "CO/C=C(/C(=O)OC)c1ccccc1Oc1cc(Oc2ccccc2C#N)ncn1", "note": "[Azoxystrobin, azoxystrobin]", "values": [{"measurement": "Observed efficacy", "setting": "Septoria tritici; 0.063 ppm", "value": 56, "unit": "%"}]}, {"compound": "COC(=O)Nc1nc2ccccc2[nH]1", "note": "[Carbendazim, carbendazim]", "values": [{"measurement": "Observed efficacy", "setting": "Pyricularia oryzae; 0.25 ppm", "value": 15, "unit": "%"}]}, {"compound": "Cc1ccc(-c2c(Cl)nc(C#N)n2S(=O)(=O)N(C)C)cc1", "note": "[Cyazofamid, cyazofamid]", "values": [{"measurement": "Observed efficacy", "setting": "Phytophthora infestans; 0.063 ppm", "value": 67, "unit": "%"}]}, {"compound": "CC1(C(=O)Nc2ccc(O)c(Cl)c2Cl)CCCCC1", "note": "[Fenhexamid, fenhexamid]", "values": [{"measurement": "Observed efficacy", "setting": "Septoria tritici; 16 ppm", "value": 33, "unit": "%"}]}, {"compound": "OC(Cc1ccccc1Cl)(Cn1nc[nH]c1=S)C1(Cl)CC1", "note": "(centres unmarked) [Prothioconazol, prothioconazole]", "values": [{"measurement": "Observed efficacy", "setting": "Botrytis cinerea; 0.063 ppm", "value": 19, "unit": "%"}]}, {"compound": "COC(=O)N(OC)c1ccccc1COc1ccn(-c2ccc(Cl)cc2)n1", "note": "[Pyraclostrobin, pyraclostrobin]", "values": [{"measurement": "Observed efficacy", "setting": "Botrytis cinerea; 0.25 ppm", "value": 4, "unit": "%"}]}, {"compound": "CC(C)CC(C)c1sccc1NC(=O)c1cn(C)nc1C(F)(F)F", "note": "(centres unmarked) [penthiopyrad]", "values": [{"measurement": "Observed efficacy", "setting": "Botrytis cinerea; 0.063 ppm", "value": 32, "unit": "%"}, {"measurement": "Observed efficacy", "setting": "Botrytis cinerea; 0.25 ppm", "value": 45, "unit": "%"}, {"measurement": "Observed efficacy", "setting": "Pyricularia oryzae; 0.25 ppm", "value": 6, "unit": "%"}, {"measurement": "Observed efficacy", "setting": "Pyricularia oryzae; 1 ppm", "value": 55, "unit": "%"}]}, {"compound": "Cn1cc(C(=O)Nc2ccccc2C2CC2C2CC2)c(C(F)F)n1", "note": "(centres unmarked) [sedaxane]", "values": [{"measurement": "Observed efficacy", "setting": "Botrytis cinerea; 0.25 ppm", "value": 41, "unit": "%"}]}, {"compound": "Spinetoram", "values": [{"measurement": "Observed efficacy", "setting": "Septoria tritici; 16 ppm", "value": 0, "unit": "%"}, {"measurement": "Observed efficacy", "setting": "Septoria tritici; 63 ppm", "value": 4, "unit": "%"}, {"measurement": "Observed efficacy", "setting": "Botrytis cinerea; 0.25 ppm", "value": 1, "unit": "%"}, {"measurement": "Observed efficacy", "setting": "Botrytis cinerea; 4 ppm", "value": 1, "unit": "%"}, {"measurement": "Observed efficacy", "setting": "Botrytis cinerea; 16 ppm", "value": 0, "unit": "%"}, {"measurement": "Observed efficacy", "setting": "Botrytis cinerea; 63 ppm", "value": 21, "unit": "%"}, {"measurement": "Observed efficacy", "setting": "Phytophthora infestans; 4 ppm", "value": 2, "unit": "%"}, {"measurement": "Observed efficacy", "setting": "Phytophthora infestans; 16 ppm", "value": 24, "unit": "%"}, {"measurement": "Observed efficacy", "setting": "Pyricularia oryzae; 4 ppm", "value": 2, "unit": "%"}, {"measurement": "Observed efficacy", "setting": "Pyricularia oryzae; 16 ppm", "value": 2, "unit": "%"}, {"measurement": "Observed efficacy", "setting": "Pyricularia oryzae; 63 ppm", "value": 34, "unit": "%"}]}, {"compound": "mancozeb", "values": [{"measurement": "Observed efficacy", "setting": "Botrytis cinerea; 16 ppm", "value": 46, "unit": "%"}]}, {"compound": "propineb", "values": [{"measurement": "Observed efficacy", "setting": "Septoria tritici; 1 ppm", "value": 25, "unit": "%"}, {"measurement": "Observed efficacy", "setting": "Phytophthora infestans; 1 ppm", "value": 23, "unit": "%"}]}]}
